Test [1] deals with T1, human PNPO F48A variant (holo-enzyme) (Homo sapiens, UniProt Q9NVS9, F48A).
T1 construct: a main form corresponding to the entire protein; made in house; host or cells: E. coli BL21(DE3)
T1 sequence (Q9NVS9 1-261 F48A): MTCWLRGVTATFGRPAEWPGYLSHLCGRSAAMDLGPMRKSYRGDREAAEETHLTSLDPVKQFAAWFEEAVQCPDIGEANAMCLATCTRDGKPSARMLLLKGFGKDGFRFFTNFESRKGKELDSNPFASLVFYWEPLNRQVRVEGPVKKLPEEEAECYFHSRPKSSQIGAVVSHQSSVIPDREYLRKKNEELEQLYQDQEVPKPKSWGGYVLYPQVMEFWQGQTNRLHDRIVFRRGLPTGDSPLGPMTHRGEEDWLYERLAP
Put plainly: PLP binding by FMN fluorescence changes, holo F48A. The settings on record: 100 nM enzyme, read-out: PLP binding KD^FLUO. From the text:
(§1) PLP binding to PNPO can be detected and quantitatively measured using differential scanning fluorimetry (DSF) and also by measuring FMN fluorescence changes. We had previously attributed DSF changes to PLP binding at the active site, while FMN fluorescence changes were attributed to PLP binding at the allosteric site (Barile et al., [2019], [2020]). Previous experiments carried out with the PNPO R161C variant, affecting a residue that is essential for substrate binding and catalysis (and therefore also for PLP binding at the active site), confirms that DSF measurements only report PLP binding at the active site (Barile et al., [2021]; Table 1). […] We expected to observe no FMN fluorescence changes upon titration of the variants with PLP. However, this was not the case, and the dissociation constant values obtained by observing the FMN fluorescence emission were only up to threefold larger in the variants with respect to wild type PNPO (Figure 3). […] To check the second possibility, we measured intrinsic fluorescence changes of wild type and variant apo‐forms (i.e., without FMN) upon PLP titration. […]
Analyses of PLP binding, based on FMN fluorescence increase observed upon binding of PLP to PNPO, were performed as described in Barile et al. ([2020]). […] Emission spectra were recorded from […], with excitation and emission slits set at 3 and 5 nm, respectively. […]

In test [2] the target is T2, human PNPO F48A/E50L/H248N/R258L variant (Homo sapiens, UniProt Q9NVS9, E50L/F48A/H248N/R258L).
T2 construct: a main form corresponding to the entire protein; made in house; host or cells: E. coli BL21(DE3)
T2 sequence (Q9NVS9 1-261 F48A/E50L/H248N/R258L): T1 sequence (Q9NVS9 1-261 F48A) with E50L, H248N, R258L
The test is described as follows: PLP binding by DSF, quadruple variant. The settings on record: 50 mM Na-HEPES pH 7.6, 2 μM enzyme.
Source text: as §1
FIGURE 2 DSF measurements with F48A (a), F48A/E50L/R258L (b), F48A/E50L/H248N/R258L (c), and 1‐31del PNPO variants in the presence of different PLP concentrations. Upper panels: Fluorescence change is expressed as fractional variation as a function of temperature. […]

The target of test [3] is human PNPO wild type (holo-enzyme). The arrangement: method as in Barile et al. ([2020]). The note with it: FMN fluorescence changes, ref Barile et al. ([2020]), read-out: PLP binding KD^FLUO; cited from earlier work.
Test [4] has as its target human PNPO R161C variant. More on the design: method as in Barile et al., [2021]. The settings on record: previous experiments, ref Barile et al., [2021]; cited from earlier work.

Where a chain is given by its changes, count along the chain named. Values joined by “and” are separate entries in the source; they are usually repeats but may differ in a detail not shown here. Equal values may be shown once.

The text below walks through data of publication PMC10804683, “Identification of the pyridoxal 5′‐phosphate allosteric site in human pyridox(am)ine 5′‐phosphate oxidase” (Protein Science : A Publication of the Protein Society, 2024).

With `Cc1ncc(COP(=O)(O)O)c(C=O)c1O` [PLP, pyridoxal 5′‐phosphate], the Kd in test [1] was 1.46 ± 0.09 µM; in test [2], 6.07 µM and 6.1 µM; in test [3], 0.95 ± 0.01 µM. In test [4], the “PLP binding KD^DSF” value is “No binding”.
